Assay results as given in US20160367505A1, “PROTOTYPICAL ANALGESIC PROFILE OF N-STEARYL DOPAMINE (NS-DA)” (priority 2015, published 2016).

Legend:
[1] = system: Paclitaxel induced pain sensitization in the formalin test of pain; assay: Paclitaxel induced neuropathic sensitization (PINS) in the formalin test of pain; format: in vivo, mice; conditions: for PINS diminished: per os in Tween-80 (5%) suspension, vs Tween-80 (5%) controls
Source text: NS-DA was synthesized and studied pharmacologically in the early ninety's.

locomotion = conditions: mice and rats; studies of the early ninety's; cited from earlier work
brain dopamine turnover = conditions: mice and rats; studies of the early ninety's; cited from earlier work

Row | Structure (SMILES) | analgesic effect (decrease) ([1]; 0-5 mn acute pain phase, females) [%] | analgesic effect ([1]; 0-5 mn acute pain phase, male mice) | suppression of PINS ([1]; 40 mg/kg ip in Cremophor.EL, 35-40 mn central sensitization phase, 1 hour after administration, vs Cremophor.EL control) [%] | analgesic effect (decrease) ([1]; 35-40 mn sensitization phase, males and females) | analgesic effect (decrease) ([1]; 55-60 mn sensitization phase, female mice) [%] | analgesic effect (decrease) ([1]; 55-60 mn sensitization phase, males) [%] | effect on PINS ([1]; NS-DA 10 mg/kg ip alone, 35-40 mn central sensitization phase) | analgesic activity against PINS ([1]; formalin test, mice, general statement) | PINS diminished ([1]; 1 hour after administration) [%] | PINS diminished ([1]; 2 hours after administration) [%] | PINS diminished ([1]; 4 hours after administration) [%] | effect on locomotion (locomotion) | effect on brain dopamine turnover (brain dopamine turnover) | decrease of PINS ([1]; morphine 3 mg/kg sc alone, 35-40 mn central sensitization phase) [%]
1 | CCCCCCCCCCCCCCCCCC(=O)NCCc1ccc(O)c(O)c1 [NS-DA] | 65 | not significant | 94.8 | about 95% | 95 | 58 | inactive | high analgesic activity | 39 | 62 | 76 | hypomotility | decrease of the brain dopamine turnover | 
2 | CN1CC[C@]23c4c5ccc(O)c4O[C@H]2[C@@H](O)C=C[C@H]3[C@H]1C5 [morphine, reference compound] |  |  |  |  |  |  |  |  |  |  |  |  |  | 37
